Legend:
ragweed = test: Test A preemergence; format: in vivo, Ambrosia elatior; conditions: 0 to 100 scale where 0 is no effect and 100 is complete control
Procedure, shortened: (§1)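 Visual injury scored 0–100 (100 = complete control) against untreated controls about 10 days after treatment in a greenhouse. Test chemicals, formulated with surfactant in non-phytotoxic solvent, were sprayed on soil preemergence or on 2-10 cm, one- to two-leaf plants postemergence.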

Italian ryegrass [1] = test: Test A preemergence; format: in vivo, Lolium multiflorum; conditions: 0 to 100 scale where 0 is no effect and 100 is complete control
Procedure, shortened: as §1

kochia = test: Test A postemergence; format: in vivo, Kochia scoparia; conditions: for Kochia plant response rating: 125 g ai/ha
Procedure, shortened: as §1

Italian ryegrass [2] = test: Test A postemergence; format: in vivo, Lolium multiflorum; conditions: for Ryegrass, Italian plant response rating: 125 g ai/ha
Procedure, shortened: as §1

galium = test: Test A postemergence; format: in vivo, Galium aparine; conditions: for Galium plant response rating: 125 g ai/ha
Procedure, shortened: as §1

velvetleaf = test: Test E preemergence; format: in vivo, Abutilon theophrasti; conditions: for Velvetleaf plant response rating: scale 0 to 100 (0 no effect, 100 complete control); for Plant response rating, Velvetleaf: 125 g ai/ha, scale 0 to 100, 0 no effect, 100 complete control
Procedure, shortened: (§2)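 Compound in a non-phytotoxic solvent mixture with surfactant was applied preemergence to seeds in silt loam soil, or postemergence to plants 2 to 18 cm tall grown in peat-based potting medium. Plants were kept in a greenhouse for 14 to 21 days, then rated visually against untreated controls on a 0 (no effect) to 100 (complete control) scale.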

Brazilian crabgrass = test: Test E preemergence; format: in vivo, Digitaria horizontalis; conditions: for Crabgrass, Brazil plant response rating: scale 0 to 100 (0 no effect, 100 complete control); for Plant response rating, Crabgrass, Brazil: 125 g ai/ha, scale 0 to 100, 0 no effect, 100 complete control
Procedure, shortened: as §2

giant foxtail = test: Test E preemergence; format: in vivo, Setaria faberii; conditions: for Foxtail, Giant plant response rating: scale 0 to 100 (0 no effect, 100 complete control); for Plant response rating, Foxtail, Giant: 125 g ai/ha, scale 0 to 100, 0 no effect, 100 complete control
Procedure, shortened: as §2

sandbur = test: Test E preemergence; format: in vivo, Cenchrus echinatus; conditions: for Sandbur plant response rating: scale 0 to 100 (0 no effect, 100 complete control); for Plant response rating, Sandbur: 125 g ai/ha, scale 0 to 100, 0 no effect, 100 complete control
Procedure, shortened: as §2

arrowleaf sida = test: Test E preemergence; format: in vivo, Sida rhombifolia; conditions: preemergence; for Arrowleaf Sida plant response rating: scale 0 to 100 (0 no effect, 100 complete control); for Plant response rating, Arrowleaf Sida: 125 g ai/ha, scale 0 to 100, 0 no effect, 100 complete control
Procedure, shortened: as §2

field bindweed = test: Test E preemergence; format: in vivo, Convolvulus arvensis; conditions: for Field Bindweed plant response rating: scale 0 to 100 (0 no effect, 100 complete control); for Plant response rating, Field Bindweed: 125 g ai/ha, scale 0 to 100, 0 no effect, 100 complete control
Procedure, shortened: as §2

morningglory = test: Test E preemergence; format: in vivo, Ipomoea coccinea; conditions: for Morningglory plant response rating: scale 0 to 100 (0 no effect, 100 complete control); for Plant response rating, Morningglory: 125 g ai/ha, scale 0 to 100, 0 no effect, 100 complete control
Procedure, shortened: as §2

nightshade = test: Test E preemergence; format: in vivo, Solanum ptycanthum; conditions: for Nightshade plant response rating: scale 0 to 100 (0 no effect, 100 complete control); for Plant response rating, Nightshade: 125 g ai/ha, scale 0 to 100, 0 no effect, 100 complete control
Procedure, shortened: as §2

yellow nutsedge = test: Test E preemergence; format: in vivo, Cyperus esculentus; conditions: for Nutsedge, Yellow plant response rating: scale 0 to 100 (0 no effect, 100 complete control); for Plant response rating, Nutsedge, Yellow: 125 g ai/ha, scale 0 to 100, 0 no effect, 100 complete control
Procedure, shortened: as §2

[3] = 0 to 100 scale where 0 is no effect and 100 is complete control
[4] = 500 g ai/ha, 0 to 100 scale where 0 is no effect and 100 is complete control
[5] = 31 g ai/ha, visual, approximately 10 days
[6] = 31 g ai/ha, 0 to 100 scale, 0 no effect, 100 complete control

FC(F)(F)COc1cnn(-c2ccccc2Oc2ncc(Cl)cn2)c1 [Compound 138, 5-chloro-2-[2-[4-(2,2,2-trifluoroethoxy)-1H-pyrazol-1-yl]phenoxy]pyrimidine]
50: Ryegrass, Italian plant response rating (Italian ryegrass [1]; 500 g ai/ha) | Plant response rating, Field Bindweed (field bindweed)
15: Plant response rating, Sandbur (sandbur) | Nutsedge, Yellow plant response rating (yellow nutsedge; 62 g ai/ha)
10: Sandbur plant response rating (sandbur; 62 g ai/ha) | Nutsedge, Yellow plant response rating (yellow nutsedge; 31 g ai/ha)
30: Plant response rating, Ragweed (ragweed; 125 g ai/ha) | Foxtail, Giant plant response rating (giant foxtail; 62 g ai/ha)
20: Field Bindweed plant response rating (field bindweed; 31 g ai/ha)
0: Plant response rating, Ryegrass, Italian (Italian ryegrass [1]; 125 g ai/ha) | Crabgrass, Brazil plant response rating (Brazilian crabgrass; 16 g ai/ha) | Foxtail, Giant plant response rating (giant foxtail; 16 g ai/ha) | Foxtail, Giant plant response rating (giant foxtail; 31 g ai/ha) | Sandbur plant response rating (sandbur; 16 g ai/ha) | Sandbur plant response rating (sandbur; 31 g ai/ha) | Arrowleaf Sida plant response rating (arrowleaf sida; 16 g ai/ha) | Arrowleaf Sida plant response rating (arrowleaf sida; 31 g ai/ha) | Field Bindweed plant response rating (field bindweed; 16 g ai/ha) | Morningglory plant response rating (morningglory; 16 g ai/ha) | Morningglory plant response rating (morningglory; 31 g ai/ha) | Morningglory plant response rating (morningglory; 62 g ai/ha) | Nightshade plant response rating (nightshade; 16 g ai/ha) | Nightshade plant response rating (nightshade; 31 g ai/ha) | Nutsedge, Yellow plant response rating (yellow nutsedge; 16 g ai/ha)
100: Plant response rating, Kochia (kochia; [4]) | Plant response rating, Galium (galium; [4]) | Plant response rating, Velvetleaf (velvetleaf) | Plant response rating, Arrowleaf Sida (arrowleaf sida)
70: Velvetleaf plant response rating (velvetleaf; 31 g ai/ha)
40: Ryegrass, Italian plant response rating (Italian ryegrass [2]; [3]) | Velvetleaf plant response rating (velvetleaf; 16 g ai/ha) | Crabgrass, Brazil plant response rating (Brazilian crabgrass; 31 g ai/ha) | Arrowleaf Sida plant response rating (arrowleaf sida; 62 g ai/ha) | Field Bindweed plant response rating (field bindweed; 62 g ai/ha) | Plant response rating, Morningglory (morningglory) | Plant response rating, Nutsedge, Yellow (yellow nutsedge)
60: Ragweed plant response rating (ragweed; 500 g ai/ha)
75: Plant response rating, Foxtail, Giant (giant foxtail)
98: Plant response rating, Crabgrass, Brazil (Brazilian crabgrass) | Nightshade plant response rating (nightshade; 62 g ai/ha)
90: Kochia plant response rating (kochia; [3]) | Plant response rating, Ryegrass, Italian (Italian ryegrass [2]; [4]) | Galium plant response rating (galium; [3]) | Velvetleaf plant response rating (velvetleaf; 62 g ai/ha) | Crabgrass, Brazil plant response rating (Brazilian crabgrass; 62 g ai/ha) | Plant response rating, Nightshade (nightshade)

N#Cc1cnn(-c2c(CF)cccc2Oc2ncc(F)cn2)c1 [Compound 151]
20: Plant response rating, Ragweed (ragweed; [5]) | Field Bindweed plant response rating (field bindweed; 62 g ai/ha)
80: Plant response rating, Ragweed (ragweed; 125 g ai/ha) | Arrowleaf Sida plant response rating (arrowleaf sida; 31 g ai/ha)
70: Crabgrass, Brazil plant response rating (Brazilian crabgrass; 62 g ai/ha)
10: Plant response rating, Galium (galium; [6])
30: Ryegrass, Italian plant response rating (Italian ryegrass [2]; [3]) | Nightshade plant response rating (nightshade; 31 g ai/ha)
90: Kochia plant response rating (kochia; [3]) | Plant response rating, Nightshade (nightshade)
0: Plant response rating, Ryegrass, Italian (Italian ryegrass [1]; [5]) | Plant response rating, Ryegrass, Italian (Italian ryegrass [1]; 125 g ai/ha) | Plant response rating, Ryegrass, Italian (Italian ryegrass [2]; [6]) | Crabgrass, Brazil plant response rating (Brazilian crabgrass; 16 g ai/ha) | Foxtail, Giant plant response rating (giant foxtail; 16 g ai/ha) | Sandbur plant response rating (sandbur; 31 g ai/ha) | Sandbur plant response rating (sandbur; 62 g ai/ha) | Field Bindweed plant response rating (field bindweed; 16 g ai/ha) | Field Bindweed plant response rating (field bindweed; 31 g ai/ha) | Morningglory plant response rating (morningglory; 31 g ai/ha) | Morningglory plant response rating (morningglory; 62 g ai/ha) | Plant response rating, Morningglory (morningglory) | Nutsedge, Yellow plant response rating (yellow nutsedge; 31 g ai/ha) | Nutsedge, Yellow plant response rating (yellow nutsedge; 62 g ai/ha) | Plant response rating, Nutsedge, Yellow (yellow nutsedge)
60: Plant response rating, Kochia (kochia; [6]) | Foxtail, Giant plant response rating (giant foxtail; 62 g ai/ha) | Arrowleaf Sida plant response rating (arrowleaf sida; 16 g ai/ha)
35: Crabgrass, Brazil plant response rating (Brazilian crabgrass; 31 g ai/ha) | Plant response rating, Sandbur (sandbur) | Plant response rating, Field Bindweed (field bindweed)
100: Velvetleaf plant response rating (velvetleaf; 62 g ai/ha) | Plant response rating, Velvetleaf (velvetleaf) | Arrowleaf Sida plant response rating (arrowleaf sida; 62 g ai/ha) | Plant response rating, Arrowleaf Sida (arrowleaf sida)
75: Plant response rating, Crabgrass, Brazil (Brazilian crabgrass) | Nightshade plant response rating (nightshade; 62 g ai/ha)
95: Velvetleaf plant response rating (velvetleaf; 31 g ai/ha) | Plant response rating, Foxtail, Giant (giant foxtail)
40: Galium plant response rating (galium; [3])
25: Foxtail, Giant plant response rating (giant foxtail; 31 g ai/ha)
